Test results reported in patent publication US20240270800A1, “ANTIMICROBIAL CaNCR PEPTIDE VARIANTS” (Donald Danforth Plant Science Center, priority 2021, published 2024).
Where a SMILES comes first, the peptide text is derived from it. Bridges are numbered along the chain shown (N, C = ends).

System: Botrytis cinerea T-4
Assay: Determination of minimum inhibitory concentration, 96-well plate spore assay with resazurin viability
Assay type: cell-based
Conditions: SFM supplemented with 100 mM NaCl
Procedure: The fungal strains of Botrytis cinerea T-4 were cultured on V8 growth medium. Fungal spores were harvested by flooding the fungal growth plates with sterile water. The spore suspension was filtered through two layers of Miracloth, centrifuged at 13,600 rpm for 1 min, washed, and re-suspended in low-salt Synthetic Fungal Medium (SFM) (U.S. Pat. No. 6,316,407). The spore suspension of each fungal pathogen was adjusted to equivalent spore density using a hemocytometer ([…]).
Anti-fungal activity of NCR13_WT and NCR13_V2 against B. cinerea was assessed using the 2-fold dilution series of each peptide. The antifungal activity was determined spectrophotometrically using the 96-well plate assay (Sagaram et al., 2011). The 45 μL of the peptide dilution ([…]) was added to each well of the microtiter plate containing 45 μL of (˜10^5 spores/ml) the spore suspension. The quantitative fungal growth inhibition was determined by measuring the absorbance at 595 nm using a (Tecan Infinite M200 ProTecan Systems Inc., San Jose, CA) microplate reader after 48 h. The fungal cell viability was determined using the resazurin cell viability assay (Chadha S & Kale SP, 2015; Li et al.; 2019). After incubation of the pathogen/peptide mixture for 48 h, 10 μl of 0.1% resazurin solution was added to each well and re-incubated overnight. […]

CC[C@H](C)[C@@H]1NC(=O)[C@@H]2CSSC[C@H](NC(=O)[C@@H]3CCCN3C(=O)[C@H](CCCCN)NC(=O)[C@@H](N)[C@@H](C)O)C(=O)N[C@@H](CCC(N)=O)C(=O)N[C@@H](CO)C(=O)N[C@@H](CC(=O)O)C(=O)N[C@@H](CCCCN)C(=O)N[C@@H](CC(=O)O)C(=O)N[C@H]3CSSC[C@H](NC(=O)[C@H](Cc4ccccc4)NC(=O)CNC(=O)[C@H](CC(N)=O)NC1=O)C(=O)N[C@@H](CCCCN)C(=O)N[C@H](C(=O)N[C@H](C(=O)N[C@@H](CCCNC(=N)N)C(=O)O)C(C)C)CSSC[C@H](NC(=O)[C@H](C)NC(=O)[C@H](Cc1ccccc1)NC(=O)[C@H](CCCCN)NC(=O)[C@H](CCCCN)NC3=O)C(=O)N[C@@H](CCCNC(=N)N)C(=O)N[C@@H](CCCCN)C(=O)N1CCC[C@H]1C(=O)N[C@@H](CCCCN)C(=O)N[C@@H](C(C)C)C(=O)N1CCC[C@H]1C(=O)N[C@@H](CCCCN)C(=O)N2 [CaNCR13] (H-TKPCQSDKDCKKFACRKPKVPKCINGFCKCVR-OH; disulfide 4-23, 10-28, 15-30)
MIC (SFM + 100 mM NaCl): No Activity
